Assay [1] has as its system Endogenous Arginine Vasopressin Antidiuretic (V2) Response. The assay can be described thus: Antagonism of endogenous arginine vasopressin antidiuretic (V2) response in conscious rats (urine volume). The assay is classed as in vivo, Sprague-Dawley rats. The settings on record: 10 mg/kg rat p.o.; urine collected for four hours after dosing; no water or food during test. The source says:
Effects on the Antagonism of Endogenous Arginine Vasopressin Antidiuretic (V2) Response in Conscious Rats with Free Access to Water Drinking Before but not During the Experiment:
Male or female normotensive Sprague-Dawley rats (Charles River Laboratories, Inc., Kingston, NY) of 400-450 g body weight were supplied with Laboratory Rodent Feed #5001 (PMI Feeds, Inc., Richmond, IN) and water ad libitum. On the day of test, rats were placed individually into metabolic cages equipped with stainless steel screens (to separate the feces from the urine) and funnels for collection of urine. Vehicle or reference agent was given at various oral doses. During the test, rats were not provided with water or food. Urine was collected for four hours after dosing of the test compound. At the end of four hours, urine volume was measured. Urinary osmolality was determined using a Fiske One-Ten Osmometer (Fiske Associates, Norwood, MA, 02062). or an Advanced CRYOMATIC Osmometer, Model 3C2 (Advanced Instruments, Norwood, MA). Determinations of Na^+, K^+ and Cl^- ion were carried out using ion specific electrodes in a Beckman SYNCHRON EL-ISE Electrolyte System analyzer. In the following results, increased urine volume and decreased osmolality relative to AVP-control indicates activity.

The target of assay [2] is T1, Human V2 Vasopressin Receptor (Homo sapiens, UniProt P30518).
T1 construct: expressed in transfected cells; host or cells: mouse fibroblast cell line LV-2 (membrane preparation)
The assay can be described thus: Binding to membranes of mouse fibroblast cell line (LV-2) transfected with the cDNA expressing the human V2 vasopressin receptor. On the procedure:
Binding to Membranes of Mouse Fibroblast Cell Line (LV-2) Transfected with the cDNA Expressing the Human V2 Vasopressin Receptor
Flasks of 175 ml capacity, containing attached cells grown to confluence, are cleared of culture medium by aspiration. The flasks containing the attached cells are rinsed with 2x5 ml of phosphate buffered saline (PBS) and the liquid aspirated off each time. Finally, 5 ml of an enzyme free dissociation Hank's based solution (Specialty Media, Inc., Lafayette, NJ) is added and the flasks are left undisturbed for 2 min. The content of all flasks is poured into a centrifuge tube and the cells pelleted at 300 x g for 15 min. […] The homogenate is centrifuged at 1500 x g for 10 min to remove ghost membranes. The supernatant fluid is centrifuged at 100,000 x g for 60 min to pellet the receptor protein. Upon completion, the pellet is resuspended in a small volume of 50.0 mM Tris.HCl buffer, pH 7.4. The protein content is determined by the Lowry method and the receptor membranes are suspended in 50.0 mM Tris.HCl buffer containing 0.1 mM phenylmethylsulfonylfluoride (PMSF) and 0.2% bovine serum albumin (BSA) to give 2.5 mg receptor protein per ml of suspension.
For binding experiments, the following is added in ml volume to wells of a 96 well format of a microtiter plate: 100.0 ml of 100.0 mM Tris.HCl buffer containing 0.2% heat inactivated BSA, 10.0 mM MgCl2 and a mixture of protease inhibitors: leupeptin, 1.0 mg %; aprotinin, 1.0 mg %; 1,10-phenanthroline, 2.0 mg %; trypsin inhibitor, 10.0 mg % and 0.1 mM PMSF, 20.0 ml of [^3H] Arginine^8, vasopressin (S.A. 75.0 Ci/mmole) at 0.8 nM and the reaction initiated by the addition of 80.0 ml of tissue membranes (200.0 mg tissue protein). The plates are left undisturbed on the bench top for 120 min to reach equilibrium. Non specific binding is assessed in the presence of 1.0 mM of unlabeled ligand, added in 20 ml volume. For test compounds, these are solubilized in 50% dimethylsulfoxide (DMSO) and added in 20.0 ml volume to a final incubation volume of […]. Upon completion of binding, the content of each well is filtered off, using a Brandel® cell Harvester (Gaithersburg, MD). The radioactivity trapped on the filter disk by the ligand-receptor complex is assessed by liquid scintillation counting in a Packard LS Counter, with an efficiency of 65% for tritium. The data are analyzed for IC50 values by the LUNDON-2 program for competition (LUNDON SOFTWARE, OH).

The mark [3] stands for this setting: read-out: Vasopressin Human V2 Receptor Binding.

SMILES strings stand for the structures. Counter-ions that a name gives are not always drawn. Like-named read-outs stand apart in the source and are kept apart here.

T1 sequence (P30518 whole entry): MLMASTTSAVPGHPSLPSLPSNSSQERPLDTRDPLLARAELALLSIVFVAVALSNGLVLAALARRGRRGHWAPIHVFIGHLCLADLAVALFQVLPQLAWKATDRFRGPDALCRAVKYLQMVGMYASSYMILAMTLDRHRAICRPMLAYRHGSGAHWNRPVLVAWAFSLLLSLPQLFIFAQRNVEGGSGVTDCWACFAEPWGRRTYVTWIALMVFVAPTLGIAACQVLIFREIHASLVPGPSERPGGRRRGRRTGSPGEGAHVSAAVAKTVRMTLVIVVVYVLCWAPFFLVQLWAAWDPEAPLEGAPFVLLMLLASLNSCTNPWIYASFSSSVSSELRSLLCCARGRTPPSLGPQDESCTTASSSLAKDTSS

In the case of `CN1CCN(NC(=O)c2ccc3n2Cc2ccccc2N(C(=O)c2ccc(NC(=O)c4ccccc4-c4ccccc4)cc2Cl)C3)CC1` [Example 13, Biphenyl-2-carboxylic acid{3-chloro-4-[3-(4-methyl-piperazine-1 aminocarbonyl)-5H,11H-pyrrolo[2,1-c][1,4]benzodiazepine-10-carbonyl]-phenyl}-amide.], the “Urine Volume (ml/4 hrs)” value in assay [1] worked out at 16.8 ml/4 hrs.
Regarding `CN(C)C1CCN(C(=O)c2ccc3n2Cc2ccccc2N(C(=O)c2ccc(NC(=O)c4ccccc4-c4ccccc4)cc2Cl)C3)CC1` [Example 12, Biphenyl-2-carboxylic acid{3-chloro-4-[3-(4-dimethylamino-piperidine-1-carbonyl)-5H,11H-pyrrolo[2,1-c][1,4]benzodiazepine-10-carbonyl]-phenyl}-amide.], in assay [1], the “Urine Volume (ml/4 hrs)” value is 21.4 ml/4 hrs.
As for `Cc1ccc(F)cc1C(=O)Nc1ccc(C(=O)N2Cc3ccc(C(=O)[N-][N+](C)(C)C)n3Cc3ccccc32)c(Cl)c1` [Example 5, 2-[[10-[2-Chloro-4-[(5-fluoro-2-methylbenzoyl)amino]benzoyl]-10,11-dihydro-5H-pyrrolo[2,1-c][1,4]benzodiazepin-3-yl]hydroxymethylene]-1,1,1-trimethylhydrazinium inner salt], the “Urine Volume (ml/4 hrs)” value in assay [1] came out at 9.1 ml/4 hrs. The same compound showed an IC50 in assay [2] of 0.06 µM.
Turning to `CN(C)NC(=O)c1ccc2n1Cc1ccccc1N(C(=O)c1ccc(NC(=O)c3ccccc3-c3ccccc3)cc1Cl)C2` [Example 8], the “Urine Volume (ml/4 hrs)” value in assay [1] is 40.9 ml/4 hrs. In assay [2], this compound showed an IC50 of 0.0086 µM.
On to `COc1cc(NC(=O)c2ccccc2-c2ccccc2)ccc1C(=O)N1Cc2ccc(C(=O)NN(C)C)n2Cc2ccccc21` [Example 17], for which the “Urine Volume (ml/4 hrs)” value in assay [1] amounted to 9.4 ml/4 hrs.
For the compound `COc1cc(NC(=O)c2ccccc2-c2ccccc2)ccc1C(=O)N1Cc2ccc(C(=O)N3CCN(C)CC3)n2Cc2ccccc21` [Example 16], in assay [1], the “Urine Volume (ml/4 hrs)” value is listed as 24.3 ml/4 hrs.
In turn, `O=C(Nc1ccc(C(=O)N2Cc3ccc(C(=O)N4CCC(N5CCOCC5)CC4)n3Cc3ccccc32)c(Cl)c1)c1ccccc1-c1ccccc1` [Example 15, Biphenyl-2-carboxylic acid{3-chloro-4-[3-(4-morpholino-piperidine-1-carbonyl)-5H,11H-pyrrolo[2,1-c][1,4]benzodiazepine-10-carbonyl]-phenyl}-amide.] showed an IC50 in assay [2] of 0.0107 µM.
In the case of `Cc1ccc(F)cc1C(=O)Nc1ccc(C(=O)N2Cc3ccc(C(=O)O)n3Cc3ccccc32)c(Cl)c1` [Example 1, 10-[2-Chloro-4-(5-fluoro-2-methyl-benzoylamino)-benzoyl]-10,11-dihydro-5H-pyrrolo[2,1-c][1,4]benzodiazepine-3-carboxylic acid], the “Urine Volume (ml/4 hrs)” value in assay [1] is recorded as 13.2 ml/4 hrs. In addition, in assay [2] (setting [3]), the IC50 came out at 0.014 µM.
Consider `O=C(Nc1ccc(C(=O)N2Cc3ccc(C(=O)C(Cl)(Cl)Cl)n3Cc3ccccc32)c(Cl)c1)c1ccccc1-c1ccccc1` [Example 6], for which the IC50 in assay [2] was 0.0056 µM.
Take `O=C(O)CNC(=O)c1ccc2n1Cc1ccccc1N(C(=O)c1ccc(NC(=O)c3ccccc3-c3ccccc3)cc1Cl)C2` [Example 18, 10-{4-[(Biphenyl-2-carbonyl)-amino]-2-chloro-benzoyl}-10,11-dihydro-5H-pyrrolo[2,1-c][1,4]benzodiazepine-3-carboxylic acid (glycyl)-amide]: the “Urine Volume (ml/4 hrs)” value in assay [1] came out at 7.8 ml/4 hrs. The compound further yielded an IC50 in assay [2] of 0.0076 µM.
Turning to `O=C(Nc1ccc(C(=O)N2Cc3ccc(C(=O)O)n3Cc3ccccc32)c(Cl)c1)c1ccccc1-c1ccccc1` [Example 7, 10-{4-[(Bipheny-2-carbonyl)-amino]-2-chloro-benzoyl)-10,11-dihydro-5H-benzo[e]pyrrolo[1,2-a][1,4] diazepine-3-carboxylic acid], the “Urine Volume (ml/4 hrs)” value in assay [1] turned out to be 19.2 ml/4 hrs.
On to `Cc1ccc(F)cc1C(=O)Nc1ccc(C(=O)N2Cc3ccc(C(=O)[O-])n3Cc3ccccc32)c(Cl)c1.[K+]` [Example 2, 10-[2-Chloro-4-(5-fluoro-2-methyl-benzoylamino)-benzoyl]-10,11-dihydro-5H-pyrrolo[2,1-c][1,4]benzodiazepine-3-carboxylic acid, potassium salt (1:1)], for which the “Urine Volume (ml/4 hrs)” value in assay [1] was found to be 11.5 ml/4 hrs.
`O=C(Nc1ccc(C(=O)N2Cc3ccc(C(=O)N4CCC(N5CCCCC5)CC4)n3Cc3ccccc32)c(Cl)c1)c1ccccc1-c1ccccc1` [Example 11, Biphenyl-2-carboxylic acid{3-chloro-4-[3-(4-piperidinyl-piperidine-1-carbonyl)-5H,11H-pyrrolo[2,1-c][1,4]benzodiazepine-10-carbonyl]-phenyl}-amide.] displayed an IC50 in assay [2] of 0.0093 µM.
As to `CN(C)CCNC(=O)c1ccc2n1Cc1ccccc1N(C(=O)c1ccc(NC(=O)c3ccccc3-c3ccccc3)cc1Cl)C2` [Example 14, 10-{4-[(Biphenyl-2-carbonyl)-amino]-2-chloro-benzoyl}-10,11-dihydro-5H-pyrrolo[2,1-c][1,4]benzodiazepine-3-carboxylic acid (2-dimethylamino-ethyl) -amide], the “Urine Volume (ml/4 hrs)” value in assay [1] is given as 11.3 ml/4 hrs.
With `Cc1ccc(F)cc1C(=O)Nc1ccc(C(=O)N2Cc3ccc(C(=O)N[N+](C)(C)C)n3Cc3ccccc32)c(Cl)c1` [Example 4, 2-[[10-[2-Chloro-4-[(5-fluoro-2-methylbenzoyl)amino]benzoyl]-10,11-dihdro-5H-pyrrolo{2,1-c][1,4]benzodiazepin-3-yl]carbonyl]-1,1,1-trimethylhydrazinium iodide], the “Urine Volume (ml/4 hrs)” value in assay [1] is 9.2 ml/4 hrs. In assay [2], this compound had an IC50 of 0.06 µM.
Consider `CN(C)CCN(C)C(=O)c1ccc2n1Cc1ccccc1N(C(=O)c1ccc(NC(=O)c3ccccc3-c3ccccc3)cc1Cl)C2` [Example 10, 10-{4-[(Biphenyl-2-carbonyl)-amino]-2-chloro-benzoyl}-10,11-dihydro-5H-pyrrolo[2,1-c][1,4]benzodiazepine-3-carboxylic acid (2-dimethylamino-ethyl)-methyl-amide], for which the “Urine Volume (ml/4 hrs)” value in assay [1] was 22.2 ml/4 hrs. Also, the IC50 in assay [2] (setting [3]) was 0.0055 µM.
For the compound `Cc1ccc(F)cc1C(=O)Nc1ccc(C(=O)N2Cc3ccc(C(=O)NN(C)C)n3Cc3ccccc32)c(Cl)c1` [Example 3, N-{3-Chloro-4-[3-(N', N'-dimethyl-hydrazinocarbonyl)-5H,11H-pyrrolo[2,1-c][1,4]benzodiazepine-10-carbonyl]-phenyl}-5-fluoro-2-methyl-benzamide], the “Urine Volume (ml/4 hrs)” value in assay [1] stood at 22 ml/4 hrs. The IC50 in assay [2] (setting [3]) came out at 0.015 µM.

These data come from EP1021444B1, “3-CARBOXAMIDE DERIVATIVES OF 5H-PYRROLO[2,1-c][1,4]-BENZODIAZEPINES” (Wyeth, priority 1996, dated 1998).
